The text below walks through data of ChEMBL document CHEMBL5505983, “Design, synthesis, and molecular modeling studies of novel 2-quinolone-1,2,3-triazole-α-aminophosphonates hybrids as dual antiviral and antibacterial agents” (Eur J Med Chem, 2024).

Values after ≈ are worked out from the molar mass of the structure shown.

A short description of series [1]: Cytotoxicity against African green monkey Vero E6 cells. The series is classed as toxicity, cell-based, Vero C1008. Conditions: chlorocebus sabaeus.
For series [2], the system named is Human rhinovirus sp. As to the kind of experiment: Antiviral activity against Human rhinovirus B14 infected in human HeLa-RH cells assessed as inhibition of cytopathic effect by microscopy based analysis. The series is classed as functional, organism-based.
Series [3] has as its system Staphylococcus aureus. As to the kind of experiment: Antibacterial activity against Staphylococcus aureus CIP 54127 assessed as reduction in bacterial growth by micro-broth dilution method. The series is classed as functional.
Series [4] deals with Pseudomonas aeruginosa. As to the kind of experiment: Antibacterial activity against Pseudomonas aeruginosa CIP A22 assessed as reduction in bacterial growth by micro-broth dilution method. It counts as functional. Background: Broth dilution looks for growth in wells or tubes with falling amounts of substance.
The subject of the next series is Chikungunya virus. As to the kind of experiment: Antiviral activity against CHIKV infected in African green monkey Vero A cells assessed as inhibition of cytopathic effect by microscopy based analysis. The series is classed as functional, organism-based. On the technique in general: Protection from cytopathic effect is a common read-out in antiviral testing.
Series [5] deals with Staphylococcus aureus. As to the kind of experiment: Ratio of MBC to MIC for Staphylococcus aureus CIP 54127. The series is classed as functional.
For a further series, the system named is Enterovirus A71. As to the kind of experiment: Antiviral activity against human EV71 infected in human RD cells assessed as inhibition of cytopathic effect by microscopy based analysis. The series is classed as functional, organism-based. Particulars: Enterovirus A.
The test system of a further series is Zika virus. As to the kind of experiment: Antiviral activity against Zika virus infected in african green monkey Vero E6 cells assessed as inhibition of cytopathic effect by microscopy based analysis. The series is classed as functional, organism-based. Conditions: Vero C1008.
Series [6] concerns Enterococcus faecalis. As to the kind of experiment: Bactericidal activity against Enterococcus faecalis. The series is classed as functional.
The subject of series [7] is Pseudomonas aeruginosa. As to the kind of experiment: Ratio of MBC to MIC for Pseudomonas aeruginosa CIP A22. The series is classed as functional.
A short description of series [8]: Selectivity index, ratio of CC50 for African green monkey Vero A cells to IC50 for CHIKV infected in African green monkey Vero A cells. Particulars: read-out: Ratio CC50/IC50. The series is classed as toxicity.
In series [9] the test system is Human rhinovirus sp. As to the kind of experiment: Antiviral activity against Human rhinovirus A2 infected in human HeLa-RH cells assessed as inhibition of cytopathic effect by microscopy based analysis. The series is classed as functional, organism-based.
Series [10] has as its system Enterococcus faecalis. As to the kind of experiment: Antibacterial activity against Enterococcus faecalis assessed as reduction in bacterial growth by micro-broth dilution method. The series is classed as functional.
Series [11] relates to Escherichia coli. As to the kind of experiment: Antibacterial activity against Escherichia coli CIP 53154 assessed as reduction in bacterial growth by micro-broth dilution method. It counts as functional.
The test system of series [12] is Pseudomonas aeruginosa. As to the kind of experiment: Bactericidal activity against Pseudomonas aeruginosa CIP A22. The series is classed as functional.
Series [13] concerns Escherichia coli. As to the kind of experiment: Bactericidal activity against Escherichia coli CIP 53154. The series is classed as functional.
The next series concerns Yellow fever virus. As to the kind of experiment: Antiviral activity against Yellow fever virus infected in human Huh-7 cells assessed as inhibition of cytopathic effect by microscopy based analysis. The series is classed as functional, organism-based.
Series [14] has as its system Escherichia coli. As to the kind of experiment: Ratio of MBC to MIC for Escherichia coli CIP 53154. The series is classed as functional.
The subject of series [15] is Enterococcus faecalis. As to the kind of experiment: Ratio of MBC to MIC for Enterococcus faecalis. The series is classed as functional.
Series [16] is described as follows: Cytotoxicity against human HeLa-RH cells. It counts as toxicity, cell-based.
A short description of series [17]: Cytotoxicity against human Huh-7 cells. It counts as toxicity, cell-based.
A short description of series [18]: Cytotoxicity against African green monkey Vero A cells. It counts as toxicity, cell-based. Conditions: chlorocebus sabaeus.
In series [19] the test system is Staphylococcus aureus. As to the kind of experiment: Bactericidal activity against Staphylococcus aureus CIP 54127. It counts as functional.
Series [20] is described as follows: Cytotoxicity against human RD cells. It counts as toxicity, cell-based.

Broadly, the CC50 is the concentration that lowers cell viability or growth by half. For orientation: IC50 means the point on the concentration scale where inhibition reaches its midpoint. A word on the MIC: it is the smallest concentration in the dilution series that meets the test's criterion for growth inhibition. Usually MBC stands for the smallest concentration meeting the test's criterion for killing. Regarding `Cc1cc(=O)n(Cc2cn(Cc3ccc(O)c(C=O)c3)nn2)c2ccccc12`, the CC50 was 57.5 µM in [1]; 11.4 µM in series [16]; 37.5 µM in series [17]; greater than 100 µM in series [18]; 27.1 µM in series [20]. The IC50 in the series on Human rhinovirus sp. [2] is greater than 100 µM; in the series on Chikungunya virus, 95.7 µM; in the series with Enterovirus A71, greater than 33.3 µM; in the series with Zika virus, greater than 100 µM; with Human rhinovirus sp. [9], greater than 1.23 µM; with Yellow fever virus it was greater than 100 µM. In addition, the MIC stood at 210 µM (≈ 78.6 µg/mL) in the series with Staphylococcus aureus [3], 26700 µM (≈ 10000 µg/mL) with Pseudomonas aeruginosa [4], 110 µM (≈ 41.2 µg/mL) in the series with Enterococcus faecalis [10] and 430 µM (≈ 161 µg/mL) in the series with Escherichia coli [11]. The Ratio in the series with Staphylococcus aureus [5] amounted to 1; in the series on Pseudomonas aeruginosa [7] it was 2; in the series on Escherichia coli [14] it was 1.93; in the series on Enterococcus faecalis [15] it was 1. For the same molecule, the MBC was 110 µM (≈ 41.2 µg/mL) against Enterococcus faecalis [6], 26700 µM (≈ 10000 µg/mL) with Pseudomonas aeruginosa [12], 830 µM (≈ 311 µg/mL) with Escherichia coli [13] and 210 µM (≈ 78.6 µg/mL) against Staphylococcus aureus [19]. Also, the selectivity ratio in [8] is greater than 1.05.
Take `CCOP(=O)(OCC)C(Nc1ccccc1)c1cc(Cn2cc(Cn3c(=O)cc(C)c4ccccc43)nn2)ccc1O` (stereo unspecified): the CC50 in series [1] was greater than 100 µM; in [16] it was greater than 100 µM; in series [17], 51.1 µM; in [18], greater than 100 µM; in series [20], greater than 100 µM. Besides, the IC50 in the series with Human rhinovirus sp. [2] is greater than 100 µM; in the series on Chikungunya virus it was 56.9 µM; in the series with Enterovirus A71, greater than 100 µM; in the series with Zika virus, greater than 100 µM; in the series with Human rhinovirus sp. [9], greater than 3.7 µM; in the series on Yellow fever virus it was greater than 100 µM. Moreover, the MIC in the series with Staphylococcus aureus [3] stood at 530 µM (≈ 311 µg/mL); in the series with Pseudomonas aeruginosa [4] it was 2130 µM (≈ 1250 µg/mL); in the series with Enterococcus faecalis [10], 270 µM (≈ 159 µg/mL); with Escherichia coli [11] it was 270 µM (≈ 159 µg/mL). Moreover, the Ratio was 2.02 in the series with Staphylococcus aureus [5], 1 with Pseudomonas aeruginosa [7], 1.96 in the series on Escherichia coli [14] and 1 in the series with Enterococcus faecalis [15]. Moreover, the minimum bactericidal concentration (MBC) with Enterococcus faecalis [6] was found to be 270 µM (≈ 159 µg/mL); in the series on Pseudomonas aeruginosa [12], 2130 µM (≈ 1250 µg/mL); in the series with Escherichia coli [13], 530 µM (≈ 311 µg/mL); against Staphylococcus aureus [19], 1070 µM (≈ 629 µg/mL). The selectivity ratio in series [8] is greater than 1.76.
`CCOP(=O)(OCC)C(Nc1ccccc1OC)c1cc(Cn2cc(Cn3c(=O)cc(C)c4cc(Br)ccc43)nn2)ccc1O` (stereo unspecified): the 50% cytotoxic concentration (CC50) in series [1] is greater than 100 µM; in series [16], greater than 33.3 µM; in series [17] it was 51.2 µM; in series [18], greater than 100 µM; in series [20], greater than 33.3 µM. Also, the half-inhibitory concentration (IC50) was greater than 100 µM in the series with Human rhinovirus sp. [2]; 81.6 µM with Chikungunya virus; greater than 100 µM in the series on Enterovirus A71; greater than 100 µM in the series on Zika virus; greater than 0.41 µM with Human rhinovirus sp. [9]; greater than 100 µM in the series with Yellow fever virus. Further, the MIC was 230 µM (≈ 160 µg/mL) with Staphylococcus aureus [3], 3590 µM (≈ 2500 µg/mL) with Pseudomonas aeruginosa [4], 110 µM (≈ 76.6 µg/mL) with Enterococcus faecalis [10] and 900 µM (≈ 627 µg/mL) with Escherichia coli [11]. For the same molecule, the Ratio was 1.96 with Staphylococcus aureus [5], 2.01 with Pseudomonas aeruginosa [7], 1.99 in the series with Escherichia coli [14] and 1 with Enterococcus faecalis [15]. Further, the MBC is 110 µM (≈ 76.6 µg/mL) against Enterococcus faecalis [6], 3590 µM (≈ 2500 µg/mL) in the series on Pseudomonas aeruginosa [12], 1790 µM (≈ 1250 µg/mL) in the series with Escherichia coli [13] and 450 µM (≈ 313 µg/mL) against Staphylococcus aureus [19]. The selectivity ratio in [8] is greater than 1.23.
Regarding `CCOP(=O)(OCC)C(Nc1ccc(F)cc1)c1cc(Cn2cc(Cn3c(=O)cc(C)c4ccccc43)nn2)ccc1O` (stereo unspecified), the CC50 in series [1] was greater than 100 µM; in [16] it was 83.8 µM; in series [17], 31.4 µM; in [18], 75.2 µM; in [20], 75.8 µM. The half-inhibitory concentration (IC50) in the series with Human rhinovirus sp. [2] is greater than 100 µM; in the series on Chikungunya virus, 26.6 µM; in the series with Enterovirus A71 it was greater than 100 µM; in the series on Zika virus it was greater than 100 µM; with Human rhinovirus sp. [9], greater than 3.7 µM; with Yellow fever virus, greater than 100 µM. Besides, the MIC in the series on Staphylococcus aureus [3] was 260 µM (≈ 157 µg/mL); with Pseudomonas aeruginosa [4] it was 2060 µM (≈ 1250 µg/mL); with Enterococcus faecalis [10], 70 µM (≈ 42.4 µg/mL); with Escherichia coli [11] it was 510 µM (≈ 309 µg/mL). Further, the Ratio in the series on Staphylococcus aureus [5] amounted to 1.96; with Pseudomonas aeruginosa [7], 1.98; with Escherichia coli [14], 2.04; with Enterococcus faecalis [15] it was 1. The MBC amounted to 70 µM (≈ 42.4 µg/mL) against Enterococcus faecalis [6], 2060 µM (≈ 1250 µg/mL) against Pseudomonas aeruginosa [12], 1040 µM (≈ 630 µg/mL) in the series on Escherichia coli [13] and 510 µM (≈ 309 µg/mL) against Staphylococcus aureus [19]. The selectivity ratio in series [8] was 2.83.
